Experimental data published in patent US12059478B2, “Gene therapy” (Ospedale San Raffaele S.r.l., priority 2016, dated 2024).

Columns and labels:
ATM kinase = ATM kinase (Homo sapiens, UniProt Q13315); conditions: cited from earlier work
ATR [1] = target: ATR (Homo sapiens, UniProt Q13535, F134E); conditions: cited from earlier work
ATR [2] = target: T1, ATR (Mus musculus, UniProt Q9JKK8); conditions: 3T3TopBP1-ER cells; cited from earlier work
T1 construct: endogenous in cells; host or cells: 3T3TopBP1-ER cells

[3] = DMSO, ethanol; cited from earlier work
human CD34+ HSPC = assay: Annexin V apoptosis assay after transduction; format: cell-based
Text: Human CD34+ hematopoietic stem and progenitor cells (HSPC) and CD4+ T cells were isolated through magnetic bead selection according to the manufacturer's instructions (Milteny) from umbilical cord blood (CB) collected upon informed consent from healthy volunteers according to the Institutional Ethical Committee approved protocol (TIGET01). Otherwise, CB and bone marrow (BM)-derived CD34+ were directly purchased from Lonza. Cells were purified and cultured as described in Petrillo et al. (Petrillo, C. et al. (2015) Molecular Therapy 23: 352-362). K562 and Hela cell lines were plated in complete Iscove's modified Dulbecco's medium (Euroclone). HL-60 cells were grown and transduced in complete RPMI. HCT-116 cells were grown and transduced in complete Dulbecco's Modified Eagle Medium (DMEM). Murine Lin− cells were isolated through magnetic bead selection according to the manufacturer's instructions (Miltenyi) from bone marrow of euthanised C57/BL6 mice. For the clinical standard double-hit transduction protocol, cells were washed 16 h after the first vector exposure, left to recover in cytokine-supplemented medium for 10 h and re-exposed to the second hit of vector for another 16 h before transplantation. […] All cells were transduced at the indicated multiplicity of infection (MOI) as calculated by titration of vector stocks on 293T cells for Lentiviral and Retroviral vectors. Transductions with the AAV6 vectors were performed at an MOI of 10000 as calculated by titration of the vector preparation expressed in vector genome per mL (vg/mL). […]
(§1) Human HSPC fluorescence associated cell sorting was performed as described in Petrillo et al. (Petrillo, C. et al. (2015) Molecular Therapy 23: 352-362). All cytometric analyses were performed using the FACS […] instrument and LSRFortessa instruments (BD Biosciences, San Jose, CA) and analysed with the FACS Express software (De Novo Software, Glendale, CA). GFP expression in transduced cells was measured 5-7 days post-transduction. […]

[4] = tested on: human CD45+ cells in the peripheral blood; assay: Transplantation of transduced human HSPC in NSG mice (engraftment); conditions: transient inhibition during ex vivo transduction
human CB-CD34+ cells [5] = assay: Cell proliferation dye assay; format: cell-based; conditions: LV MOI 100, 2 days
[6] = tested on: p53 signalling (p21 mRNA) in human CD34+ HSPC; assay: p21 mRNA induction (p53 signalling) after vector transduction, Taqman; format: cell-based; conditions: for LV-induced p21 mRNA in presence of the inhibitor: CB-CD34+, LV MOI 100, inhibitor 10 μM, 48 h
Text: Human CD34+ hematopoietic stem and progenitor cells (HSPC) and CD4+ T cells were isolated through magnetic bead selection according to the manufacturer's instructions (Milteny) from umbilical cord blood (CB) collected upon informed consent from healthy volunteers according to the Institutional Ethical Committee approved protocol (TIGET01). Otherwise, CB and bone marrow (BM)-derived CD34+ were directly purchased from Lonza. Cells were purified and cultured as described in Petrillo et al. (Petrillo, C. et al. (2015) Molecular Therapy 23: 352-362). K562 and Hela cell lines were plated in complete Iscove's modified Dulbecco's medium (Euroclone). HL-60 cells were grown and transduced in complete RPMI. HCT-116 cells were grown and transduced in complete Dulbecco's Modified Eagle Medium (DMEM). Murine Lin− cells were isolated through magnetic bead selection according to the manufacturer's instructions (Miltenyi) from bone marrow of euthanised C57/BL6 mice. For the clinical standard double-hit transduction protocol, cells were washed 16 h after the first vector exposure, left to recover in cytokine-supplemented medium for 10 h and re-exposed to the second hit of vector for another 16 h before transplantation. All animal procedures were performed according to protocols approved by the Animal Care and Use Committee of the Ospedale San Raffaele (IACUC 611) and according to Italian law. All cells were transduced at the indicated multiplicity of infection (MOI) as calculated by titration of vector stocks on 293T cells for Lentiviral and Retroviral vectors. Transductions with the AAV6 vectors were performed at an MOI of 10000 as calculated by titration of the vector preparation expressed in vector genome per mL (vg/mL). All the transductions were performed at 1×10^6 cells/mL concentration. In the experiment with anti-retroviral inhibitors, the drugs were added together with the vector. Raltegravir and 3TC were used at 10 μM, and AZT at 25 μM. In the ATM inhibition experiment, single hit of the ATM inhibitor KU55933 (Selleck Chemicals) was added to the cells 2 hours before the transduction at 10 μM concentration. All cells were maintained in a 5% CO2 humidified atmosphere at 37° C.
Total RNA was extracted with the RNeasy Plus Micro kit or RNeasy Micro Kit (Qiagen) and Reverse transcription was performed using SuperScriptVILO cDNA Synthesis Kit (ThermoFisher Scientific) according to the manufacturers' instructions. Gene expression analysis was performed by Taqman probe (Thermo Fisher, Table 6) as described in Petrillo et al. (Petrillo, C. et al. (2015) Molecular Therapy 23: 352-362), human HPRT1 or murine Hprt were used to normalise the total quantity of human or mouse cDNA input respectively.

mPB CD34+ cells = assay: Two-hit transduction protocol in mPB CD34+ cells with clinical-grade LV (apoptosis, CFC, cell counts, p21); format: cell-based, human; conditions: two hits MOI 100 clinical-grade LV, 10 μM
Text: (§2) Human CD34+ hematopoietic stem and progenitor cells (HSPC) and CD4+ T cells were isolated through magnetic bead selection according to the manufacturer's instructions (Milteny) from umbilical cord blood (CB) collected upon informed consent from healthy volunteers according to the Institutional Ethical Committee approved protocol (TIGET01). Otherwise, CB and bone marrow (BM)-derived CD34+ were directly purchased from Lonza. Cells were purified and cultured as described in Petrillo et al. (Petrillo, C. et al. (2015) Molecular Therapy 23: 352-362). K562 and Hela cell lines were plated in complete Iscove's modified Dulbecco's medium (Euroclone). […] All cells were transduced at the indicated multiplicity of infection (MOI) as calculated by titration of vector stocks on 293T cells for Lentiviral and Retroviral vectors. Transductions with the AAV6 vectors were performed at an MOI of 10000 as calculated by titration of the vector preparation expressed in vector genome per mL (vg/mL). […]
CFC assay cells were performed as described in Petrillo et al and Gentner et al. (Petrillo, C. et al. (2015) Molecular Therapy 23: 352-362; Gentner, B. et al. (2010) Science Translational Medicine 2: 58ra84). After ten days, colonies were identified as erythroid or myeloid by morphological criteria, counted, plucked and pooled into sets of three to obtain DNA for quantification of vector content. […]

[7] = tested on: Interferon stimulated genes (IRF7, OAS1, ISG15) in human CB-CD34+; assay: Interferon stimulated gene mRNA induction; format: cell-based; conditions: RV MOI 100, 48 h, Raltegravir and KU55933 10 μM, AZT 25 μM
Text: as §2, with “(Euroclone). HL-60 cells were grown and transduced in complete RPMI. HCT-116 cells were grown and transduced in complete Dulbecco's Modified Eagle Medium (DMEM). Murine Lin− cells were isolated through magnetic bead selection according to the manufacturer's instructions (Miltenyi) from bone marrow of euthanised C57/BL6 mice.” for “(Euroclone).”

human CB-CD34+ cells [8] = assay: Transduction efficiency (GFP expression, integrated vector copy number); format: cell-based; conditions: LV MOI 100, 10 μM, 14 days
Text: as §2
as §1, with “CA).” for “CA). GFP expression in transduced cells was measured 5-7 days post-transduction.”

[9] = CB-CD34+ exposed to AAV-6 MOI 10000, 10 μM

Chain of ATM kinase (Q13315 whole entry): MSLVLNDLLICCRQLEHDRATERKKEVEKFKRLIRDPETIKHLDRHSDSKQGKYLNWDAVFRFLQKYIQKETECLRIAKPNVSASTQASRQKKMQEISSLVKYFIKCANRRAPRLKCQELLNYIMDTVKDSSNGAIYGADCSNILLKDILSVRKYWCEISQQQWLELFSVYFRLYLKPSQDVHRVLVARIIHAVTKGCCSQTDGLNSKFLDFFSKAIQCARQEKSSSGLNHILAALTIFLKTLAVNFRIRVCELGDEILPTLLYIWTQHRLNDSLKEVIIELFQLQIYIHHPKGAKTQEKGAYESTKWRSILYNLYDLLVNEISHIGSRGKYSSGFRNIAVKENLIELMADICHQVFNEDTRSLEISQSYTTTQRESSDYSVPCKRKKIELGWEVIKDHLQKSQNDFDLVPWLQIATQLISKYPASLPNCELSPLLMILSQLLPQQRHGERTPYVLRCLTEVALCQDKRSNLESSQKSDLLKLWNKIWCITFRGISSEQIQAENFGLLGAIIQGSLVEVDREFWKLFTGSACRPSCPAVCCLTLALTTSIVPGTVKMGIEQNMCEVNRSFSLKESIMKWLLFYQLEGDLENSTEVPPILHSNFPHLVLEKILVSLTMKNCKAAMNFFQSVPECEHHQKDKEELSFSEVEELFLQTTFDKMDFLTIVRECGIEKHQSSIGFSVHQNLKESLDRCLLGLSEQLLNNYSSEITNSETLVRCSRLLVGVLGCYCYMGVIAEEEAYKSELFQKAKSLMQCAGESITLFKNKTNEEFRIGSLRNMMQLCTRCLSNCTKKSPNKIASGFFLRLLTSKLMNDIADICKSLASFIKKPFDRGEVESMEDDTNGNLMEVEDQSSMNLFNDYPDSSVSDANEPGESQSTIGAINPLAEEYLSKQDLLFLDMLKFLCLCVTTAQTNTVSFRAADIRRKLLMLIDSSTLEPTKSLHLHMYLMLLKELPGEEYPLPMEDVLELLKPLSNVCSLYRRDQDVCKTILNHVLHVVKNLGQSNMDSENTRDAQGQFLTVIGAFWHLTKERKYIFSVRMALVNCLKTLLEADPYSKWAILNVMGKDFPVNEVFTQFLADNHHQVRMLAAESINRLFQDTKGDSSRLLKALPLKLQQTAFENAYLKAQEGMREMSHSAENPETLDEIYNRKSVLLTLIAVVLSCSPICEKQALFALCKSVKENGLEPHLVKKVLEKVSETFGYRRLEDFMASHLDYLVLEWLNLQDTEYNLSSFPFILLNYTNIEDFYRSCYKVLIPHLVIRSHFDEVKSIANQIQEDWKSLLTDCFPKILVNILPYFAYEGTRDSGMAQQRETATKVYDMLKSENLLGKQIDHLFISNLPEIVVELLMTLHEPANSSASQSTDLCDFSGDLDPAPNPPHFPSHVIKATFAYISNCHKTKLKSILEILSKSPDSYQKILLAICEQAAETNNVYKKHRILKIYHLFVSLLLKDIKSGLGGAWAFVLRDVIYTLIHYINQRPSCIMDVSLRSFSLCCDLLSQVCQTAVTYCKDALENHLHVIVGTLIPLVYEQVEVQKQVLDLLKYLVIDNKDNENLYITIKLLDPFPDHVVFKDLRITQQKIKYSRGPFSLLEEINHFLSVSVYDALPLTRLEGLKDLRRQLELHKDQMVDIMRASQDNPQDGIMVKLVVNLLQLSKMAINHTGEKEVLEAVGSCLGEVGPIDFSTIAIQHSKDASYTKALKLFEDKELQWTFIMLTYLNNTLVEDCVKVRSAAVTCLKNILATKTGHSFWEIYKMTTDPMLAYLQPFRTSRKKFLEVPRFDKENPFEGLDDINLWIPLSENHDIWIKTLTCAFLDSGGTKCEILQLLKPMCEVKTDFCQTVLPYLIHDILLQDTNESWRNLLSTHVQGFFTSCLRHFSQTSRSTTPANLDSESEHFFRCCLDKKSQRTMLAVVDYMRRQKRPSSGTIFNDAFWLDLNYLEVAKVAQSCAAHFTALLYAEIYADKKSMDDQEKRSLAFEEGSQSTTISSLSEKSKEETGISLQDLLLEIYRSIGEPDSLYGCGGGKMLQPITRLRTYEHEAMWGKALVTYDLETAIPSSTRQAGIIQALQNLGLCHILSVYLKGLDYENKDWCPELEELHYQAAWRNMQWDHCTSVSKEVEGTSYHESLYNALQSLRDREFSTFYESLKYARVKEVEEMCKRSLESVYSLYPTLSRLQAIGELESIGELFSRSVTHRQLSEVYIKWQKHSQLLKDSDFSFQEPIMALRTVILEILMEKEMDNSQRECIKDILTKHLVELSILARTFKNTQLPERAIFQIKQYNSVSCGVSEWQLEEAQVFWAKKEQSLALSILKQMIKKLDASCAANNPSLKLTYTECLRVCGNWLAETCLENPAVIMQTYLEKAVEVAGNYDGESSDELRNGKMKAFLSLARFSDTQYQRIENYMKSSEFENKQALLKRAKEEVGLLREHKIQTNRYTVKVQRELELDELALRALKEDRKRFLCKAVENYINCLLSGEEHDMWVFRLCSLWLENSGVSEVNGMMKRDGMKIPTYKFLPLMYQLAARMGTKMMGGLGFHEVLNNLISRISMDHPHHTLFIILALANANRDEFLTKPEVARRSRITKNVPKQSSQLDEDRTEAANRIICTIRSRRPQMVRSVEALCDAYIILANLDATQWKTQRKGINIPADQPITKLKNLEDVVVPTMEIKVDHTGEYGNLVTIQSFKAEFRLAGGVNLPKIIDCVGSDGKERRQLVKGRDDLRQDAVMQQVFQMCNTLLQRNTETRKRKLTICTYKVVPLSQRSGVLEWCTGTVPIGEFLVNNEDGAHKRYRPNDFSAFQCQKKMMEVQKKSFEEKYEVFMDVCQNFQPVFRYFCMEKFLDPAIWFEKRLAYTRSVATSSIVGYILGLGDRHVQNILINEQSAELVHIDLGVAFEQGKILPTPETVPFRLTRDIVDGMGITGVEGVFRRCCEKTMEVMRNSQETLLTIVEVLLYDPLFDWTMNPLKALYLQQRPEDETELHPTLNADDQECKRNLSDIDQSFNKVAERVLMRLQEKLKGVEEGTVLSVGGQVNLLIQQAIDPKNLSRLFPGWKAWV

## O=C(NC(NC(=S)Nc1ccc(F)c([N+](=O)[O-])c1)C(Cl)(Cl)Cl)C(c1ccccc1)c1ccccc1 (centres unmarked) [CGK 733]
ATM kinase
  IC50: ~200 nM
ATR [1]
  IC50: ~200 nM

## Cn1c(=O)n(-c2ccc(C(C)(C)C#N)cc2)c2c3cc(-c4cnc5ccccc5c4)ccc3ncc21 [BEZ235, Dactolisib]
ATR [2]
  IC50: ~21 nM

## O=c1cc(-c2cccc3c2Sc2ccccc2S3)oc(N2CCOCC2)c1 [KU-55933]
[3]
  Solubility: soluble in DMSO and ethanol
Human CD34+ HSPC; [9]
  AAV-6-induced apoptosis under ATM inhibition: rescued
Human CD34+ HSPC; CB-CD34+, LV MOI 100, inhibitor 10 μM, 48 h
  LV-induced apoptosis in presence of the inhibitor: partially abrogated
[4]
  Improvement of LV-exposed HSPC engraftment: around 25%
Human CB-CD34+ cells [5]
  Proliferation delay of LV-transduced HSPC under ATM inhibition: did not affect
[6]; [9]
  AAV-6-induced p21 mRNA under ATM inhibition: rescued
[6]
  LV-induced p21 mRNA in presence of the inhibitor: significantly reduced
mPB CD34+ cells
  Impact of ATM inhibition on apoptosis, colony output, cell counts in culture and p21 induction: Positive impact
[7]
  γRV-mediated ISG induction in presence of the inhibitor: no impact

## COc1cc2ncnc(-n3nc(-c4ccccn4)nc3N)c2cc1OC [CP-466722]
ATM kinase
  ATM kinase inhibition: potent and reversible ATM kinase inhibitor
ATR [1]
  Effect on ATR: does not affect ATR

## Cc1nnc(C(=O)NC(C)(C)c2nc(C(=O)NCc3ccc(F)cc3)c(O)c(=O)n2C)o1 [Raltegravir]
Human CB-CD34+ cells [8]
  LV integration (VCN) in presence of integrase inhibitor: efficient block
[6]
  LV-induced p21 mRNA in presence of the inhibitor: still occurred
[7]
  γRV-mediated ISG induction in presence of the inhibitor: occurred also

B1: GSE56: dominant negative form of p53 (SEQ ID NO: 6), over-expressed from a LV (protein, listed as Homo sapiens)
chain: CPGRDRRTEEENFRKKEEHCPELPPGSAKRALPTSTSSSPQQKKKPLDGEYFTLKIRGRERFEMFRELNEALELKDARAAEESGDSRAHSSYPK
Human CD34+ HSPC; GSE56-expressing HSPC, 48 h after second hit
  Apoptosis upon a second round of transduction: reduced apoptosis
[6]; GSE56-expressing CB-CD34+ vs control transduced
  p21 induction upon a second round of LV or AAV6 transduction: completely prevented
[6]; GSE56-overexpressing HSPC
  p53 signalling upon DNA damage by Captothecin (CPT): efficiently block p53 signalling
